A short description of data set [1]: physchem. As to conditions: buffer, pH 7.4.
Description: Lipophilicity, log D of the compound at pH 7.4
The target of data set [2] is T1, Mitogen-activated protein kinase kinase kinase 5 (Homo sapiens, UniProt Q99683).
T1 sequence (Q99683 whole entry): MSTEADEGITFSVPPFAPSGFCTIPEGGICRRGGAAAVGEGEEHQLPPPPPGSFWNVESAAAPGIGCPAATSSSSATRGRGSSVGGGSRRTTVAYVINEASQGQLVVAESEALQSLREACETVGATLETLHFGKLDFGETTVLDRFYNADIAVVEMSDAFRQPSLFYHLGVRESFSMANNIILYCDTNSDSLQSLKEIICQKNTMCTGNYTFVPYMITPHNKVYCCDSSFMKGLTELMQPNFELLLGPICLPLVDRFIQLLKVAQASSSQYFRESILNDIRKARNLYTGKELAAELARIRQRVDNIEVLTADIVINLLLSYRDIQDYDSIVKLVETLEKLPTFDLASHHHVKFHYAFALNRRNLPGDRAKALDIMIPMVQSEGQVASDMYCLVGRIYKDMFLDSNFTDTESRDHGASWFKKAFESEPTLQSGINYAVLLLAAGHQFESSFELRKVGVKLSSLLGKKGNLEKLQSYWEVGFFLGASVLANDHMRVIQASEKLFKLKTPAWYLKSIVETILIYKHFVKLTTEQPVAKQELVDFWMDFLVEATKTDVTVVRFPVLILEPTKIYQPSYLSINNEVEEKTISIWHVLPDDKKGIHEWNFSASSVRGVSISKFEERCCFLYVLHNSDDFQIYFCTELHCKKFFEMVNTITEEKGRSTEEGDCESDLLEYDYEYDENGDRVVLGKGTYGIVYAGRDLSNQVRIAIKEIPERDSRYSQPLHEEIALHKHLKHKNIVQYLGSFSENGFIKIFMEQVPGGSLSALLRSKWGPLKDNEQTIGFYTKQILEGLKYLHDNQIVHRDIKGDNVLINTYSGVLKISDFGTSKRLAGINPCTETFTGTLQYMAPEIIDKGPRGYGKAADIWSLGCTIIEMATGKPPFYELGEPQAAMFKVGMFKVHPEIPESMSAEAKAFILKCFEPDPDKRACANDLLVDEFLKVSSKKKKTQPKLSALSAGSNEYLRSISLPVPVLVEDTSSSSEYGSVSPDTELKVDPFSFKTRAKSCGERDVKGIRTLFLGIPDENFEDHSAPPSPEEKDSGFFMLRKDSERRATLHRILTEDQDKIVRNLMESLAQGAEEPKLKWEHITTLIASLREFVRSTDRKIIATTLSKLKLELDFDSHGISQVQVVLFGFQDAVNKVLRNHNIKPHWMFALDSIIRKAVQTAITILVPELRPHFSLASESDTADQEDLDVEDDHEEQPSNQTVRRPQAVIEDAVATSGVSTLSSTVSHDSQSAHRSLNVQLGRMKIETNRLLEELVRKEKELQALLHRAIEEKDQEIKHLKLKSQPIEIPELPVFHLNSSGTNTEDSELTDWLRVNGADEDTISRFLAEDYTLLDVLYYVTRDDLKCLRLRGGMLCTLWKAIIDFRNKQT
The data set can be described thus: Competitive inhibition of human recombinant N-terminal FLAG-tagged ASK1 expressed in baculovirus infected […] cells after 60 mins by scintillation counting analysis in presence of [gamma-33P]ATP.

Data set [3] deals with INS1. The data set can be described thus: Inhibition of ASK1 in rat INS1 ([…]) cells assessed as downregulation of streptozotocin-induced p38 phosphorylation incubated for 1 hr prior to streptozotocin induction measured after 1 hr by Western blot analysis. Format: cell-based. In general terms: A western blot detects proteins with antibodies after separation by electrophoresis.

For data set [4], the system named is INS1. In words: Inhibition of ASK1 in rat INS1 ([…]) cells assessed as downregulation of streptozotocin-induced JNK phosphorylation at 0.3 to 10 uM incubated for 1 hr prior to streptozotocin induction measured after 1 hr by Western blot analysis. Format: cell-based.
For data set [5], the target named is Glycogen synthase kinase-3 beta (Homo sapiens, UniProt P49841). In words: Inhibition of GSK3beta.
The target of data set [6] is Serine/threonine-protein kinase B-raf (Homo sapiens, UniProt P15056). The data set can be described thus: Inhibition of BRAF.
Data set [7] has as its target T2, Mitogen-activated protein kinase kinase kinase 6 (Homo sapiens, UniProt O95382).
T2 sequence (O95382 whole entry): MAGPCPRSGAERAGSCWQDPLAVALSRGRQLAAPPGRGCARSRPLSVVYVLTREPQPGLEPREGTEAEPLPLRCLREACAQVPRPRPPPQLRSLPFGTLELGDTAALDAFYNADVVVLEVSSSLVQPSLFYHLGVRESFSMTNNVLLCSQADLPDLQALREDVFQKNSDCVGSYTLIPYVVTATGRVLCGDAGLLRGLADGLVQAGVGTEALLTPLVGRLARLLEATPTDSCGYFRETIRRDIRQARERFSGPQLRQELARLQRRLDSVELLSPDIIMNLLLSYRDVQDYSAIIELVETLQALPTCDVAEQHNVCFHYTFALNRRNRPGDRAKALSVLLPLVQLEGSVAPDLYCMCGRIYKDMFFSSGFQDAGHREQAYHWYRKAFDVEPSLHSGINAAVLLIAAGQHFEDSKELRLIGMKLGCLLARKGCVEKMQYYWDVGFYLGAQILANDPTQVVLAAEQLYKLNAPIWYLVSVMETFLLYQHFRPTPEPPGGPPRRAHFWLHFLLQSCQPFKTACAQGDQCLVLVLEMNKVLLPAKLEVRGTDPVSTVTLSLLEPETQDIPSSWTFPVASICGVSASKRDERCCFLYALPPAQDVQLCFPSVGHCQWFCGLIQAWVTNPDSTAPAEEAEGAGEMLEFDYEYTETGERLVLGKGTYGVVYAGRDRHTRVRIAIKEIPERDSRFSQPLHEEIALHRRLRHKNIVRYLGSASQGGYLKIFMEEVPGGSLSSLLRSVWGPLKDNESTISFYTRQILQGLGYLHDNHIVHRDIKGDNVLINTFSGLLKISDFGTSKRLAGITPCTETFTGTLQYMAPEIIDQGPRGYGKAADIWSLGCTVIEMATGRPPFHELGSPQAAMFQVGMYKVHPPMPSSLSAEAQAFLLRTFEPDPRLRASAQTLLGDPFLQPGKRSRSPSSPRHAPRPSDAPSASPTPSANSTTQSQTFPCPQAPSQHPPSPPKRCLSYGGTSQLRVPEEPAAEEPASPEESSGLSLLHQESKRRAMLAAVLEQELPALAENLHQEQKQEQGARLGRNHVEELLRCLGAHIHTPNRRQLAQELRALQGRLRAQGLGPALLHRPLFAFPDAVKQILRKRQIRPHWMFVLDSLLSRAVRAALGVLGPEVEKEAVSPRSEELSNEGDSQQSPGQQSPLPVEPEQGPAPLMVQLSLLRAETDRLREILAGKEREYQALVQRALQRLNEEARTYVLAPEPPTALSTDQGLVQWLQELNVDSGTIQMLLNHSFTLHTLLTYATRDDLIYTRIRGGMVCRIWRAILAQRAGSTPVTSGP
The data set can be described thus: Inhibition of ASK2.

The target of data set [8] is Mitogen-activated protein kinase 8 (Homo sapiens, UniProt P45983). In words: Inhibition of JNK1.
Data set [9] deals with Mitogen-activated protein kinase 3 (Homo sapiens, UniProt P27361). In words: Inhibition of ERK1.
For data set [10], the target named is Mitogen-activated protein kinase kinase kinase 1 (Homo sapiens, UniProt Q13233). The data set can be described thus: Inhibition of MEKK1.
For data set [11], the target named is T3, Inhibitor of nuclear factor kappa-B kinase subunit beta (Homo sapiens, UniProt O14920).
T3 sequence (O14920 whole entry): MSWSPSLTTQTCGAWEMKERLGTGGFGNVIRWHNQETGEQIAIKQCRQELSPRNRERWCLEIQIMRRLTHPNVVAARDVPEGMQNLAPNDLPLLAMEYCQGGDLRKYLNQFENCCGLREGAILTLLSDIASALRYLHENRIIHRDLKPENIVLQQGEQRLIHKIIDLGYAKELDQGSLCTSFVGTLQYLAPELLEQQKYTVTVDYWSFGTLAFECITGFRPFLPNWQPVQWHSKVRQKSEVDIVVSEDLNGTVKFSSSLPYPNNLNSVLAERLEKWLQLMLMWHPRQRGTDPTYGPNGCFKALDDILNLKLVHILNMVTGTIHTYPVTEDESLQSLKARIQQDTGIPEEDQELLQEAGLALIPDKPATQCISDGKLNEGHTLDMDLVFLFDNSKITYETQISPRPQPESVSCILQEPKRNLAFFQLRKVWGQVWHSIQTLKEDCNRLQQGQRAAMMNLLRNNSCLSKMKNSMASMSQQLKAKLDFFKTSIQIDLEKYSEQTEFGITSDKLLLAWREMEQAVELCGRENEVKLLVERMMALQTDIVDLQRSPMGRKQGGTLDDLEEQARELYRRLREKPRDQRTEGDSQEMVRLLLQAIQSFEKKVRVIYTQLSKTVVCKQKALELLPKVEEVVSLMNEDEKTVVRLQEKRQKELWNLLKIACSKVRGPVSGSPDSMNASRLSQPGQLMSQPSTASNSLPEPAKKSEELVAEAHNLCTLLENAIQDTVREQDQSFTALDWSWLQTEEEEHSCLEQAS
The data set can be described thus: Inhibition of IKKbeta.

For data set [12], the target named is Mitogen-activated protein kinase 14 (Homo sapiens, UniProt Q16539). In words: Inhibition of p38alpha.
Data set [13] concerns the target Protein kinase C theta type (Homo sapiens, UniProt Q04759). In words: Inhibition of PKCtheta.

Molecules are shown by their SMILES. Active and inactive are the calls of the source. No cut-off for these calls is given here.

This passage reports logD, IC50 and inhibition results from ChEMBL document CHEMBL2203246, “Design and biological evaluation of imidazo[1,2-a]pyridines as novel and potent ASK1 inhibitors” (Bioorg Med Chem Lett, 2012).

One may read the logD as lipophilicity at a set pH, counting ionised and neutral species. A high value points to higher lipophilicity. Broadly, the IC50 is the concentration at which inhibition is half-maximal.

Sequence of Mitogen-activated protein kinase 8 (P45983 whole entry): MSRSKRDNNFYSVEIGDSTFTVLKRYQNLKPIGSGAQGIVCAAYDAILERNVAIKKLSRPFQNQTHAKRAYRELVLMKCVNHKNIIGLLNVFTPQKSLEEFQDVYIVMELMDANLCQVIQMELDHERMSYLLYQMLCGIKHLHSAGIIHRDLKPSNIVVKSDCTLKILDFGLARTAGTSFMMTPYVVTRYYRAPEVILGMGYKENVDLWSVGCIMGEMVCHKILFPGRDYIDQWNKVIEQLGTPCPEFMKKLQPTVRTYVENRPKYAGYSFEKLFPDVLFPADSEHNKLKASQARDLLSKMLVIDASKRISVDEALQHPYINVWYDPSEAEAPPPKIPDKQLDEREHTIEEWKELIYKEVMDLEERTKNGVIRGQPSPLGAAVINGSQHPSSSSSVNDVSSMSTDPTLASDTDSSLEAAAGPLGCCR
Sequence of Protein kinase C theta type (Q04759 whole entry): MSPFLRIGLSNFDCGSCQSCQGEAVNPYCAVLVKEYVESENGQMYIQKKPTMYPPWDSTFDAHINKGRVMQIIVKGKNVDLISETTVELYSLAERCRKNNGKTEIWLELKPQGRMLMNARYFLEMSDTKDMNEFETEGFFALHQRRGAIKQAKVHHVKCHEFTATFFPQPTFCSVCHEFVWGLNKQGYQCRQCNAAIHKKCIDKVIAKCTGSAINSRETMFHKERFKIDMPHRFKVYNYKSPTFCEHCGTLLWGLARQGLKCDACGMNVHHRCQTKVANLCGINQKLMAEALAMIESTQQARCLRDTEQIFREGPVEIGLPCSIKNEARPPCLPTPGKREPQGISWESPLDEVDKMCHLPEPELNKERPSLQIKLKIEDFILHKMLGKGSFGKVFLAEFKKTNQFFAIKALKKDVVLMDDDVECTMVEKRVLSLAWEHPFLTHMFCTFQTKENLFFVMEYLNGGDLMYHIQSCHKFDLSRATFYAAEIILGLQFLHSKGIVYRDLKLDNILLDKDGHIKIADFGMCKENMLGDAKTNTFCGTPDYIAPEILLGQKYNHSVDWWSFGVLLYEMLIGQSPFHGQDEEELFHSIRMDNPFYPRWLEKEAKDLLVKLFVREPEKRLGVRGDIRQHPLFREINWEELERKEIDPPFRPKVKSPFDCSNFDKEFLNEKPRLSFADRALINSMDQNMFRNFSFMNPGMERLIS
Sequence of Serine/threonine-protein kinase B-raf (P15056 whole entry): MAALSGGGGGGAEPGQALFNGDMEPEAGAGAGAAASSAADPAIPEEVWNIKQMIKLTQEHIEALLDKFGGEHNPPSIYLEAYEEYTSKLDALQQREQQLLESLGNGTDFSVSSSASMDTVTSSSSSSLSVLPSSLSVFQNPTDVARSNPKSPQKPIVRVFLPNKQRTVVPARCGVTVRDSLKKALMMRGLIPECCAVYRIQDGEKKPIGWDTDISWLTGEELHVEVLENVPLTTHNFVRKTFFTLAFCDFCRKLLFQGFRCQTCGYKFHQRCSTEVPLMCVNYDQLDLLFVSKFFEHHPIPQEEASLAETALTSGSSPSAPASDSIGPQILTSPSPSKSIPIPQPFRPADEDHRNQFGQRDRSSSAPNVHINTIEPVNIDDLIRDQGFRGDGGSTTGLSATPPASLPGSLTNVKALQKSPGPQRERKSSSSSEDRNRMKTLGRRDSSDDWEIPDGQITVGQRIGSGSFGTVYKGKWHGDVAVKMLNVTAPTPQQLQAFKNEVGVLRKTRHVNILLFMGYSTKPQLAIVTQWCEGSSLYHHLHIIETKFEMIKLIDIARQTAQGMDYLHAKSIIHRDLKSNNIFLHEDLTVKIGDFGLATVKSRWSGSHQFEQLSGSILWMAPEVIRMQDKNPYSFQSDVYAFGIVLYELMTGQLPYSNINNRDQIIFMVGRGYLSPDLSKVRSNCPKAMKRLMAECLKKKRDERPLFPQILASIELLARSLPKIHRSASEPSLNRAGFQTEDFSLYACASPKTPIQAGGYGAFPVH
Sequence of Mitogen-activated protein kinase 14 (Q16539 whole entry): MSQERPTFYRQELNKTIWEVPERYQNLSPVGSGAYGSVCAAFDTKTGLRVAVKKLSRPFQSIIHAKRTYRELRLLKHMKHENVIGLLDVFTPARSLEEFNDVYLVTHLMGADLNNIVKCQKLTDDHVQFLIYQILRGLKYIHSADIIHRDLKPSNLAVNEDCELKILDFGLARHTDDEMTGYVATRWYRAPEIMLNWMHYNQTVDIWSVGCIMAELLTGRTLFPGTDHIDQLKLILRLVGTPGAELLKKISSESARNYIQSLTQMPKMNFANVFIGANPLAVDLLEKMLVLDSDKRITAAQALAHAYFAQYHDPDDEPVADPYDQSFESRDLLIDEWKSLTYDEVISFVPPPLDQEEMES
Sequence of Mitogen-activated protein kinase kinase kinase 1 (Q13233 whole entry): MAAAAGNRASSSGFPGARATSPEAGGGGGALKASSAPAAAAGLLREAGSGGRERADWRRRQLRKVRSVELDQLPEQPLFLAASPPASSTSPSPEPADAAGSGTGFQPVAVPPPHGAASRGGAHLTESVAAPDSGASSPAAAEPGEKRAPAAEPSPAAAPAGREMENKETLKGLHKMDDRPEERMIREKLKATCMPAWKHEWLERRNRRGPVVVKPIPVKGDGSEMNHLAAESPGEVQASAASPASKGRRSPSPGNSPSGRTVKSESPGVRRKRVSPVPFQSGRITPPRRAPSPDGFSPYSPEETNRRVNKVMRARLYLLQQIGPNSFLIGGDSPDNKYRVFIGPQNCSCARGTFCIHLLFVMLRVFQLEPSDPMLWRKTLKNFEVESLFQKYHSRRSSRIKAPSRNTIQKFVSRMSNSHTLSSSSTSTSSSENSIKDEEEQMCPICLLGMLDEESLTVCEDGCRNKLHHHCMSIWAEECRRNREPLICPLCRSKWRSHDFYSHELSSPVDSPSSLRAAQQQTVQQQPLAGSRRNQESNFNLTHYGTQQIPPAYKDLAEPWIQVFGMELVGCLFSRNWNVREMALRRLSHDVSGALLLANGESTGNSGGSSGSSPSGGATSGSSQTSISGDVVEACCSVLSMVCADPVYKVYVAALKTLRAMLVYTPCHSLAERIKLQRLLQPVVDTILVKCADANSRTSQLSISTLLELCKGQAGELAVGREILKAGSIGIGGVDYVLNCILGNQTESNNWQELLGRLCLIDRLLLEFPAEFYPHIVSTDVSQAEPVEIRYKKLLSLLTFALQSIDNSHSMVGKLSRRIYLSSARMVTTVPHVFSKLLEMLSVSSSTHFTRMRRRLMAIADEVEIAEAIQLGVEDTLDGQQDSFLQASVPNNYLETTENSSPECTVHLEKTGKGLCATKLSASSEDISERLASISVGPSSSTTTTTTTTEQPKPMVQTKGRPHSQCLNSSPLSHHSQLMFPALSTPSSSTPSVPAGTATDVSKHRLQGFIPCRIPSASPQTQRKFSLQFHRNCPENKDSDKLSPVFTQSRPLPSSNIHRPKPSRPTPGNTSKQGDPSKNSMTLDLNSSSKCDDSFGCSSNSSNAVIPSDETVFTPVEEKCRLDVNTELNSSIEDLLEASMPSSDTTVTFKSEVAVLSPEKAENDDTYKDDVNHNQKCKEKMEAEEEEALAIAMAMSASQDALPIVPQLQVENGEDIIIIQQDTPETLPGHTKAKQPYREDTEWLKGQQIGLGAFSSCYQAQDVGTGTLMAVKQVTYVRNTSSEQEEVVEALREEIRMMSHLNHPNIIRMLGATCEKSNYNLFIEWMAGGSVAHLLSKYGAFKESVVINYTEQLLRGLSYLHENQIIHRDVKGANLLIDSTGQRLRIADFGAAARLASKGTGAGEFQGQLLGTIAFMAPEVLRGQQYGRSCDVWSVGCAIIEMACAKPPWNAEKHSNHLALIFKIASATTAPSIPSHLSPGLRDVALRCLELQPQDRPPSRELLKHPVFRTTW
Sequence of Mitogen-activated protein kinase 3 (P27361 whole entry): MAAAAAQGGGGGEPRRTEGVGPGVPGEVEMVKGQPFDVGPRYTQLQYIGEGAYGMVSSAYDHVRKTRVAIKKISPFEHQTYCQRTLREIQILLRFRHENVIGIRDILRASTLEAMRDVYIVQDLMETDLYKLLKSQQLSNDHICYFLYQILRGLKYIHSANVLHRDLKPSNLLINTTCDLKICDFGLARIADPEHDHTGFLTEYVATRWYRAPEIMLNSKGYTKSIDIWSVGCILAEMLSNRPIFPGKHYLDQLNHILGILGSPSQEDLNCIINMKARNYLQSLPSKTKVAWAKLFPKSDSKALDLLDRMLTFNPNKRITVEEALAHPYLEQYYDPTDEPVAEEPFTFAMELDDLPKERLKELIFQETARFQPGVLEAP
Sequence of Glycogen synthase kinase-3 beta (P49841 whole entry): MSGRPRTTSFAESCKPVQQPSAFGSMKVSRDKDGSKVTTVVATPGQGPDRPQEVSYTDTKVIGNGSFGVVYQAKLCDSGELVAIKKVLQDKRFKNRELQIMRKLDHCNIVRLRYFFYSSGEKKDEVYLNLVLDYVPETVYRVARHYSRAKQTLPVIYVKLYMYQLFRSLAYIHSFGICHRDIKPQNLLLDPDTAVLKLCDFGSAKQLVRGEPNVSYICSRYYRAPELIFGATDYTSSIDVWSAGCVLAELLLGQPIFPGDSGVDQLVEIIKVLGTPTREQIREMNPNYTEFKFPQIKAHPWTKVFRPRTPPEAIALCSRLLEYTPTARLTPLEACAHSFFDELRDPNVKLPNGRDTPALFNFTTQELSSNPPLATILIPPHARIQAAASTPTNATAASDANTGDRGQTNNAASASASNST

As to `Cc1ccc2nc(NC(=O)c3ccc(C(C)(C)C)cc3)sc2c1`, in data set [1], the pH-dependent lipophilicity (logD) is 5.08. Further, in data set [2], the IC50 was determined as 260 nM.
Take `CC(C)(C)c1ccc(C(=O)Nc2cn3cc(-n4ccnc4)ccc3n2)cc1` [listing 1 of 3 here]: the logD in [1] is 3.16.
`CC(C)(C)c1ccc(C(=O)Nc2cn3cc(F)ccc3n2)cc1` returned a pH-dependent lipophilicity (logD) in data set [1] of 3.55. In [2], the IC50 was determined as 34 nM.
Take `CC(C)(C)c1ccc(C(=O)Nc2cn3cc(-c4ccccc4)ccc3n2)cc1`: the pH-dependent lipophilicity (logD) in data set [1] worked out at 4.83. For the same molecule, in data set [2], the IC50 was 82 nM.
For the molecule `CC(C)(C)c1ccc(C(=O)Nc2cn3cc(-n4ccnc4)ccc3n2)cc1` [listing 2 of 3 here], in data set [3], the inhibition result is “Dose-dependent effect”. In addition, the inhibition result in data set [4] was “Active”.
As to `CC(C)(C)c1ccc(C(=O)Nc2cn3cc(-n4ccnc4)ccc3n2)cc1` [listing 3 of 3 here], the IC50 is above 10000 nM in data set [5]; above 10000 nM in data set [6]; 510 nM in data set [7]; above 10000 nM in [8]; above 10000 nM in [9]; above 10000 nM in data set [10]. Also, the half-maximal inhibitory concentration (IC50) in data set [11], in [12] and in data set [13] was above 10000 nM each time.
In [1], `Cc1ccc2nc(NC(=O)c3ccc(C(C)(C)C)cc3)cn2c1` gave a log distribution coefficient (logD) of 3.78. The IC50 in [2] was 22 nM.
`CC(C)(C)c1ccc(C(=O)Nc2cn3cc(Cl)ccc3n2)cc1` registered a pH-dependent lipophilicity (logD) in [1] of 4.04. Further, the IC50 in [2] was determined as 16 nM.
As to `CC(C)(O)c1ccc(C(=O)Nc2cn3cc(-n4ccnc4)ccc3n2)cc1`, the log distribution coefficient (logD) in data set [1] was 1.27. Besides, in data set [2], the IC50 came to 70 nM.
`CNCc1ccc2nc(NC(=O)c3ccc(C(C)(C)C)cc3)cn2c1` yielded a logD in data set [1] of 2.4. Also, the IC50 in data set [2] turned out to be 870 nM.
The like results for `CC(C)(C)c1ccc(C(=O)Nc2cn3cc(-c4cccnc4)ccc3n2)cc1` were, in that order, 3.6 and 21 nM.
The like results for `CC(C)(C)c1ccc(C(=O)Nc2cn3cc(Br)ccc3n2)cc1` were, in that order, 4.17 and 21 nM.
On to `CC(C)(C)c1ccc(C(=O)Nc2cn3cc(CO)ccc3n2)cc1`, for which, in [1], the logD turned out to be 2.83. Further, the IC50 in data set [2] stood at 129 nM.
`CC(C)(CO)c1ccc(C(=O)Nc2cn3cc(-n4ccnc4)ccc3n2)cc1`: the logD in data set [1] was determined as 1.62. In addition, in data set [2], the half-inhibitory concentration (IC50) was determined as 32 nM.
With `CC(C)(C)c1ccc(C(=O)Nc2cn3cc(-n4cccc4)ccc3n2)cc1`, the IC50 in data set [2] stood at 30 nM.
